From ChEMBL document CHEMBL2406986, “Correlation of hydrogen-bonding propensity and anticancer profile of tetrazole-tethered combretastatin analogues” (Bioorg Med Chem Lett, 2013) come the findings set out here.

The species named for one assay is Bos taurus. Put plainly: Displacement of [3H]colchicine from bovine brain tubulin at 5 uM after 10 mins relative to control.
The test system of another assay is A549. Put plainly: Cytotoxicity against human A549 cells assessed as growth inhibition after 48 hrs by MTT assay. In kind it is functional, cell-based. The settings on record: A549, 48 h.
Assay [1] is described as follows: Cytotoxicity against human H1299 cells assessed as growth inhibition after 48 hrs by MTT assay. The class given is functional, cell-based. Conditions: NCI-H1299, 48 h.
For the next assay, the system named is MCF7. The assay is described as follows: Cytotoxicity against human MCF7 cells assessed as growth inhibition after 48 hrs by MTT assay. The settings on record: MCF7, 48 h. The class given is functional, cell-based.
Assay [2] is described as follows: Inhibition of bovine brain tubulin assembly preincubated for 15 mins followed by GTP addition measured for 20 mins by spectrophotometric analysis. Details: species or system Bos taurus.
The subject of a further assay is HeLa. Put plainly: Cytotoxicity against human HeLa cells assessed as growth inhibition after 48 hrs by MTT assay. In kind it is functional, cell-based.

A value given as a limit tells only on which side of the number the result lay.

In general, inhibition refers to the relative decrease from the control value, in per cent. Read a high inhibition as a strong effect. As usually defined, the IC50 is the concentration that inhibits the measured activity by half. Compound `COc1ccc(-c2nnnn2-c2cc(OC)c(OC)c(OC)c2)c(O)c1N` had an inhibition in the assay filed under Bos taurus of 69%. Besides, the IC50 with A549 was 0.52 µM; in assay [1] it was 4 µM; in the assay on MCF7, 2.9 µM; in assay [2], 2200 nM; with HeLa, 900 nM.
Take `COc1ccc(-c2nnnn2-c2cc(OC)c(OC)c(OC)c2O)c(O)c1`: the IC50 in the assay on A549 was 50 µM; in assay [1], 49 µM; in the assay with MCF7 it was 46 µM; in assay [2] it was over 20000 nM; in the assay on HeLa it was 45000 nM.
For `COc1ccc(/C=C\c2cc(OC)c(OC)c(OC)c2)cc1O` [COMBRETASTATIN A4], the IC50 in the assay with A549 was 0.28 µM; in assay [1] it was 0.0062 µM; in the assay on MCF7, 0.098 µM.
`COc1ccc(-c2nnnn2-c2cc(OC)c(OC)c(OC)c2)c(O)c1` had an inhibition in the assay listed under Bos taurus of 52%. The IC50 in the assay with A549 was determined as 6.4 µM; in assay [1] it was 7.9 µM; with MCF7 it was 8.2 µM; in assay [2], 2700 nM; with HeLa, 2400 nM.
For the compound `COc1ccc(-c2nnnn2-c2cc(OC)c(OC)c(OC)c2)c(O)c1O`, the inhibition in the assay filed under Bos taurus amounted to 62%. The IC50 amounted to 6.7 µM in the assay with A549; 8.8 µM in assay [1]; 6.6 µM with MCF7; 2500 nM in assay [2]; 950 nM in the assay with HeLa.
Turning to `COc1ccc(-c2nnnn2-c2cc(OC)c(OC)c(OC)c2O)cc1`, the IC50 was over 100 µM with A549; 40 µM in assay [1]; 72 µM with MCF7; over 20000 nM in assay [2]; 92000 nM in the assay on HeLa.
